Reference: patent publication US20240409566A1, “DELIVERY OF THERAPEUTIC ALKALOID COMPOUNDS” (priority 2022, published 2024)

What was measured:
[1] = Plasma stability assay, human plasma; type: in vitro ADME
Method: (§1) Compound stability in rat and human plasma was measured by incubating compound with rat or human plasma at 37° C. in a microwell plate for sequential time points, monitoring pro-drug disappearance and metabolite appearance (mesembranol or 6-epi-mesembranol). A 2 mM stock solution of test compounds were prepared by dissolving appropriate amount of compounds in DMSO. The 2 mM stock was further diluted 200-folds in rat or human plasma to attain a final concentration of 10 μM respectively (0.5% DMSO). 50 μL aliquots of positive controls and test compounds spiked into rat or human plasma (n=2) were added to a pre-warmed plate (37° C.) and shaken at 50 rpm. At each respective time point, the reaction was stopped by adding 500 μL of acetonitrile containing internal standards (100 nM aprozolam, 200 nM caffeine, 100 nM tolbutamide). All samples were vortexed for 10 minutes, followed by centrifugation at 3,220 g for 30 minutes to precipitate proteins. 100 μL of the supernatant is transferred to a new plate. The supernatant will be diluted with ultrapure water according to the LC-MS signal response and peak shape. The concentrations of test compounds and positive control were quantified in the test samples using LC-MS/MS. Results reported as % of prodrug compound remaining at time point, and % of metabolite (mesembranol or 6-epi-mesembranol,) accumulated at time point.

[2] = Plasma stability assay, rat plasma; type: in vitro ADME
Method: as §1

[3] = human plasma, 37° C., 10 μM, 0 min, % prodrug remaining
[4] = human plasma, 37° C., 10 μM, 10 min, % prodrug remaining
[5] = human plasma, 37° C., 10 μM, 30 min, % prodrug remaining
[6] = human plasma, 37° C., 10 μM, 60 min, % prodrug remaining
[7] = human plasma, 37° C., 10 μM, 120 min, % prodrug remaining
[8] = human plasma, 37° C., 10 μM, 240 min, % prodrug remaining
[9] = rat plasma, 37° C., 10 μM, 0 min, % prodrug remaining
[10] = rat plasma, 37° C., 10 μM, 10 min, % prodrug remaining
[11] = rat plasma, 37° C., 10 μM, 30 min, % prodrug remaining
[12] = rat plasma, 37° C., 10 μM, 60 min, % prodrug remaining
[13] = rat plasma, 37° C., 10 μM, 120 min, % prodrug remaining
[14] = rat plasma, 37° C., 10 μM, 240 min, % prodrug remaining

| Structure (SMILES) | Prodrug (%) [1, 3] [%] | Prodrug (%) [1, 4] [%] | Prodrug (%) [1, 5] [%] | Prodrug (%) [1, 6] [%] | Prodrug (%) [1, 7] [%] | Prodrug (%) [1, 8] [%] | Prodrug (%) [2, 9] [%] | Prodrug (%) [2, 10] [%] | Prodrug (%) ([1]; human, 0 min, 10 µM) | Prodrug (%) ([1]; human, 10 min, 10 µM) | Prodrug (%) ([1]; human, 30 min, 10 µM) | Prodrug (%) ([1]; human, 60 min, 10 µM) | Prodrug (%) ([1]; human, 120 min, 10 µM) | Prodrug (%) ([1]; human, 240 min, 10 µM) | Prodrug (%) ([2]; rat, 0 min, 10 µM) | Prodrug (%) ([2]; rat, 10 min, 10 µM) | Prodrug (%) ([2]; rat, 30 min, 10 µM) | Prodrug (%) ([2]; rat, 60 min, 10 µM) | Prodrug (%) ([2]; rat, 120 min, 10 µM) | Prodrug (%) ([2]; rat, 240 min, 10 µM) | also measured |
| --- | --- | --- | --- | --- | --- | --- | --- | --- | --- | --- | --- | --- | --- | --- | --- | --- | --- | --- | --- | --- | --- |
| COc1ccc([C@@]23CC[C@H](OC(=O)c4ccccc4)C[C@@H]2N(C)CC3)cc1OC [Compound 104, (3aS,6S,7aS)-3a-(3,4-dimethoxyphenyl)-1-methyloctahydro-1H-indol-6-yl benzoate] | 100.00 | >99.0 | 97.34 | 97.40 | 95.15 | 90.28 | 100.0 | 62.0 | – | – | – | – | – | – | – | – | – | – | – | – | Prodrug (%) [2, 11]: 27.5%; Prodrug (%) [2, 12]: 7.5%; Prodrug (%) [2, 13]: 1.4%; Prodrug (%) [2, 14]: 0.6% |
| CCCCC(=O)O[C@H]1CC[C@@]2(c3ccc(OC)c(OC)c3)CCN(C)[C@H]2C1 [Compound 105, (3aS,6S,7aS)-3a-(3,4-dimethoxyphenyl)-1-methyloctahydro-1H-indol-6-yl pentanoate] | – | – | – | – | – | – | – | – | 100.00 | 96.40 | 89.85 | 81.61 | 72.68 | 50.16 | 100.0 | 10.8 | 0.5 | 0.1 | 0.0 | 0.0 | – |
| CCCC(=O)O[C@H]1CC[C@@]2(c3ccc(OC)c(OC)c3)CCN(C)[C@H]2C1 [Compound 106, (3aS,6S,7aS)-3a-(3,4-dimethoxyphenyl)-1-methyloctahydro-1H-indol-6-yl butyrate] | – | – | – | – | – | – | – | – | 100.00 | 93.04 | 87.33 | 79.39 | 67.04 | 50.22 | 100.0 | 39.9 | 2.75 | 0.7 | 0.2 | 0.1 | – |
| COc1ccc([C@@]23CC[C@@H](OC(=O)N(C)C)C[C@@H]2N(C)CC3)cc1OC [Compound 201, (3aS,6R,7aS)-3a-(3,4-dimethoxyphenyl)-1-methyloctahydro-1H-indol-6-yl dimethylcarbamate] | 100.0 | 96.3 | 97.0 | 94.8 | 97.7 | >99.0 | 100.0 | >99.0 | – | – | – | – | – | – | – | – | – | – | – | – | Prodrug (%) [2, 11]: >99.0%; Prodrug (%) [2, 12]: >99.0%; Prodrug (%) [2, 13]: >99.0%; Prodrug (%) [2, 14]: 97.6% |
| COc1ccc([C@@]23CC[C@@H](OC(=O)C(C)(C)C)C[C@@H]2N(C)CC3)cc1OC [Compound 202, (3aS,6R,7aS)-3a-(3,4-dimethoxyphenyl)-1-methyloctahydro-1H-indol-6-yl pivalate] | – | – | – | – | – | – | – | – | 100.0 | >99.0 | >99.0 | 96.3 | 94.7 | 88.1 | 100.0 | 80.6 | 38.9 | 9.6 | 0.6 | 0.0 | – |
| COc1ccc([C@@]23CC[C@@H](OC(=O)C(C)C)C[C@@H]2N(C)CC3)cc1OC [Compound 203, (3aS,6R,7aS)-3a-(3,4-dimethoxyphenyl)-1-methyloctahydro-1H-indol-6-yl isobutyrate] | – | – | – | – | – | – | – | – | 100.0 | 0.1 | 0.1 | 0.1 | 0.1 | 0.1 | 100.0 | 0.1 | 0.1 | 0.0 | 0.0 | 0.0 | – |
| COc1ccc([C@@]23CC[C@@H](OC(=O)c4ccccc4)C[C@@H]2N(C)CC3)cc1OC [Compound 204, (3aS,6R,7aS)-3a-(3,4-dimethoxyphenyl)-1-methyloctahydro-1H-indol-6-yl benzoate] | 100.00 | 97.40 | 94.26 | 92.22 | 93.59 | 91.87 | 100.0 | 38.7 | – | – | – | – | – | – | – | – | – | – | – | – | Prodrug (%) [2, 11]: 5.9%; Prodrug (%) [2, 12]: 0.6%; Prodrug (%) [2, 13]: 0.1%; Prodrug (%) [2, 14]: 0.0% |
| COc1ccc([C@@]23CC[C@@H](OCOC(=O)C(C)(C)C)C[C@@H]2N(C)CC3)cc1OC [Compound 207, (((3aS,6R,7aS)-3a-(3,4-dimethoxyphenyl)-1-methyloctahydro-1H-indol-6-yl)oxy)methyl pivalate] | – | – | – | – | – | – | – | – | 100.0 | 42.0 | 6.9 | 1.6 | 0.7 | 0.1 | 100.0 | 26.5 | 0.5 | 0.0 | 0.0 | 0.0 | – |
| COc1ccc([C@@]23CC[C@@H](OCOC(=O)C(C)C)C[C@@H]2N(C)CC3)cc1OC [Compound 208, (((3aS,6R,7aS)-3a-(3,4-dimethoxyphenyl)-1-methyloctahydro-1H-indol-6-yl)oxy)methyl isobutyrate] | – | – | – | – | – | – | – | – | 100.0 | 0.1 | 0.2 | 0.2 | 0.0 | 0.0 | 100.0 | 0.0 | 0.0 | 0.0 | 0.0 | 0.0 | – |
